Reference: paper PMC10938783, “A novel pan-PI3K inhibitor KTC1101 synergizes with anti-PD-1 therapy by targeting tumor suppression and immune activation” (Molecular Cancer, 2024)

Test system: B16 cells gene expression
Test: RNA-Seq (DEGs, GSEA, heatmaps) of B16 cells
Conditions: KTC1101 0.2μM, B16 cells, GSEA KEGG

SMILES: COc1cc(N)cc2c1nc(C(F)F)n2-c1nc(N2CCCOCC2)nc(N2CCOCC2)n1 [KTC1101, 2-(difluoromethyl)-4-methoxy-1-(4-morpholino-6-(1,4-oxazepan-4-yl)-1,3,5-triazin-2-yl)-1H-benzo[d]imidazol-6-amine]
- NES, mmu00600 Sphingolipid metabolism: -0.9518
- NES, mmu00860 Porphyrin metabolism: -1.036
- NES, mmu00980 Metabolism of xenobiotics by cytochrome P450: -1.182
- NES, mmu00982 Drug metabolism - cytochrome P450: -1.185
- NES, mmu01250 Biosynthesis of nucleotide sugars: -1.14
- NES, mmu01522 Endocrine resistance: 0.9546
- NES, mmu01523 Antifolate resistance: -0.7817
- NES, mmu02010 ABC transporters: -0.733
- NES, mmu03008 Ribosome biogenesis in eukaryotes: 0.4012
- NES, mmu03015 mRNA surveillance pathway: -0.5314
- NES, mmu03018 RNA degradation: -0.9036
- NES, mmu03022 Basal transcription factors: -0.6056
- NES, mmu03040 Spliceosome: -0.8341
- NES, mmu03060 Protein export: -1.073
- NES, mmu03082 ATP-dependent chromatin remodeling: 0.5087
- NES, mmu03083 Polycomb repressive complex: 0.285
- NES, mmu03250 Viral life cycle - HIV-1: -0.5849
- NES, mmu03410 Base excision repair: 0.509
- NES, mmu03420 Nucleotide excision repair: -0.5668
- NES, mmu03430 Mismatch repair: -0.5004
- NES, mmu03460 Fanconi anemia pathway: -1.065
- NES, mmu04014 Ras signaling pathway: -1.059
- NES, mmu04068 FoxO signaling pathway: 0.8311
- NES, mmu04070 Phosphatidylinositol signaling system: -0.719
- NES, mmu04071 Sphingolipid signaling pathway: -0.7752
- NES, mmu04115 p53 signaling pathway: 0.8074
- NES, mmu04120 Ubiquitin mediated proteolysis: -0.8155
- NES, mmu04130 SNARE interactions in vesicular transport: -0.572
- NES, mmu04136 Autophagy - other: 0.5764
- NES, mmu04137 Mitophagy - animal: -1.12
- NES, mmu04140 Autophagy - animal: -0.941
- NES, mmu04144 Endocytosis: 0.5953
- NES, mmu04146 Peroxisome: 0.8534
- NES, mmu04148 Efferocytosis: 0.8875
- NES, mmu04150 mTOR signaling pathway: -1.035
- NES, mmu04152 AMPK signaling pathway: -1.036
- NES, mmu04210 Apoptosis: 0.7025
- NES, mmu04211 Longevity regulating pathway: 0.8953
- NES, mmu04213 Longevity regulating pathway - multiple species: 0.9083
- NES, mmu04215 Apoptosis - multiple species: 0.9536
- NES, mmu04216 Ferroptosis: -1.019
- NES, mmu04217 Necroptosis: -1.0231
- NES, mmu04270 Vascular smooth muscle contraction: 0.9765
- NES, mmu04360 Axon guidance: 1.086
- NES, mmu04392 Hippo signaling pathway - multiple species: 1.0712
- NES, mmu04514 Cell adhesion molecules: 1.133
- NES, mmu04520 Adherens junction: 0.8769
- NES, mmu04530 Tight junction: -0.672
- NES, mmu04550 Signaling pathways regulating pluripotency of stem cells: 1.1205
- NES, mmu04611 Platelet activation: 0.9386
- NES, mmu04612 Antigen processing and presentation: 0.9078
- NES, mmu04622 RIG-I-like receptor signaling pathway: 0.797
- NES, mmu04623 Cytosolic DNA-sensing pathway: 1.118
- NES, mmu04650 Natural killer cell mediated cytotoxicity: 0.8466
- NES, mmu04658 Th1 and Th2 cell differentiation: 1.107
- NES, mmu04660 T cell receptor signaling pathway: 0.5971
- NES, mmu04662 B cell receptor signaling pathway: 0.8546
- NES, mmu04666 Fc gamma R-mediated phagocytosis: -1.143
- NES, mmu04670 Leukocyte transendothelial migration: 0.7018
- NES, mmu04714 Thermogenesis: -1.042
- NES, mmu04720 Long-term potentiation: 0.7614
- NES, mmu04723 Retrograde endocannabinoid signaling: 1.004
- NES, mmu04726 Serotonergic synapse: 1.185
- NES, mmu04727 GABAergic synapse: 1.114
- NES, mmu04728 Dopaminergic synapse: 0.9578
- NES, mmu04730 Long-term depression: 1.063
- NES, mmu04750 Inflammatory mediator regulation of TRP channels: 0.9151
- NES, mmu04910 Insulin signaling pathway: 1.052
- NES, mmu04912 GnRH signaling pathway: 1.125
- NES, mmu04915 Estrogen signaling pathway: 0.9405
- NES, mmu04916 Melanogenesis: 0.9564
- NES, mmu04917 Prolactin signaling pathway: 0.9333
- NES, mmu04920 Adipocytokine signaling pathway: 1.108
- NES, mmu04929 GnRH secretion: -1.07
- NES, mmu04930 Type II diabetes mellitus: 1.078
- NES, mmu04932 Non-alcoholic fatty liver disease: -1.05
- NES, mmu04934 Cushing syndrome: 0.9692
- NES, mmu04936 Alcoholic liver disease: 0.7413
- NES, mmu04960 Aldosterone-regulated sodium reabsorption: 1.176
- NES, mmu04961 Endocrine and other factor-regulated calcium reabsorption: 0.9748
- NES, mmu04962 Vasopressin-regulated water reabsorption: 1.132
